Measured values from patent US7094561B2, “Method of monitoring the menstrual cycle and/or pregnancy in a female” (University of Guelph, priority 2000, dated 2006).

Key:
[1] = test system: high endothelial venules (HEV) of peripheral lymph nodes (PLN); assay: Adhesion under shear of human PBL to PLN HEV in frozen sections from hormone-treated ovariectomized mice; format: in vivo, mouse; details: for L-selectin-dependent and α4 integrin-dependent lymphocyte adhesion to endothelium of secondary lymphoid tissues, compared to pregnancy: hormone-treated Ovx mice versus pregnant mice, shear flow
Excerpt: (§1) C57BI/6J (Jackson Laboratory, Bar Harbor, Me.) and Balb/c (Taconic, Germantown, N.Y.) mice, aged 7–8 wk were studied. Some females were used for timed matings with the morning of the copulation plug designated gd 0. Other females (n=34) were surgically ovariectomized under Avertin anaesthesia (24). Females were rested 6 days and then received daily subcutaneous injections of either hormone dissolved in sesame oil or sesame oil alone between 9.00–11.00 a.m. as indicated in FIG. 2.^81-84 Some of the Ovx hormone-treated mice also had 10 μl sterile sesame oil injected into a uterine horn to induce decidualization 48 h prior to euthanasia. Ovx mice were euthanized 24 hours after receiving their last injection and vaginal smears were collected and stained with Wright-Giemsa to confirm treatment success. Non-pregnant (NP) controls were virgin females who had never been paired with males. All procedures were performed under appropriate animal utilization protocols. The following samples were collected from each mouse and embedded in OCT (Miles Laboratories) for cryosectioning: i) a pool of 10–12 PLN from subcutaneous and intermuscular sites; ii) a pool of 10–12 intestinal PP; iii) the entire pancreas; and iv) the uterus. For some experiments, the median iliac lymph nodes that drain the pelvic organs, including the uterus, were also dissected. Non-decidualized uteri were trimmed at the ovarian and cervical ends, then incised longitudinally along one side on an axis midway between the mesometrial and anti-mesometrial aspects. The mesometrium (the mesentery suspending the uterus, also known as the broad ligament) was not removed and served as a positional landmark during analyses. For embedding, samples were oriented to produce full thickness longitudinal sections that included both antimesometrial and mesometrial sides. Uteri from gd 3 were flushed for blastocysts to confirm pregnancy. The cell suspensions evaluated for adhesive interactions with endothelium were human peripheral blood lymphocytes (PBL) isolated from random (female and male) normal donor buffy coat leukocyte concentrates (American Red Cross, Rochester, N.Y.);^85,68 and TK-1 cells (an alpha integrin^high, L-selectin^low mouse T lymphoma cell line).^85 In selected experiments, human PBL were cultured 6 hr at 37° C. or 40° C. before being applied to tissue sections, as previously described^12. In all assays, some cell aliquots were incubated with function blocking mAb specific for human L-selectin (DREG-56, American Type Cell Collection [ATCC], Manassas, Va., 10 μg/ml) or human alpha4 integrin (HP2/1, Coulter Immunology, Hialeah, Fla., 10 μg/ml). To identify adherent human NK cells, PBL aliquots were pre-labeled with anti-CD56 mAb (NKG1, Coulter Immunology, diluted 1:100) followed by rabbit anti-mouse Ig-rhodamine isothiocynate (RITC) Ab as described previously (10;29). Control aliquots were treated with the secondary reagent alone. […] Following removal of non adherent cells, glutaraldehyde-fixed specimens were stained with 0.5% toluidine blue and adhesion was scored on 300–500 HEV/PLN or PP specimen or equivalent numbers of small vessels in pancreatic tissue. When CD56-pre-labeled cells were used, fluorescent cells were quantified in 10 high power fields (HPF; one HPF=5 mm^2) at 200× magnification using an Olympus BH2/RFL fluorescence microscope (Olympus Optical, Tokyo, Japan) (10;29). […]

[2] = test system: pancreas endothelium; assay: Adhesion of PBL or TK-1 cells to pancreas endothelium from hormone-treated ovariectomized mice; format: in vivo, mouse; details: tissue from hormone-treated Ovx mice
Excerpt: C57BI/6J (Jackson Laboratory, Bar Harbor, Me.) and Balb/c (Taconic, Germantown, N.Y.) mice, aged 7–8 wk were studied. Some females were used for timed matings with the morning of the copulation plug designated gd 0. Other females (n=34) were surgically ovariectomized under Avertin anaesthesia (24). Females were rested 6 days and then received daily subcutaneous injections of either hormone dissolved in sesame oil or sesame oil alone between 9.00–11.00 a.m. as indicated in FIG. 2.^81-84 Some of the Ovx hormone-treated mice also had 10 μl sterile sesame oil injected into a uterine horn to induce decidualization 48 h prior to euthanasia. […]
The cell suspensions evaluated for adhesive interactions with endothelium were human peripheral blood lymphocytes (PBL) isolated from random (female and male) normal donor buffy coat leukocyte concentrates (American Red Cross, Rochester, N.Y.);^85,68 and TK-1 cells (an alpha integrin^high, L-selectin^low mouse T lymphoma cell line).^85 In selected experiments, human PBL were cultured 6 hr at 37° C. or 40° C. before being applied to tissue sections, as previously described^12. […] Following removal of non adherent cells, glutaraldehyde-fixed specimens were stained with 0.5% toluidine blue and adhesion was scored on 300–500 HEV/PLN or PP specimen or equivalent numbers of small vessels in pancreatic tissue. […]

[3] = test system: uterine tissue; assay: Adhesion of CD56-labeled human PBL to uterine tissue from hormone-treated ovariectomized mice; format: in vivo, mouse; details: for adhesion of CD56bright human lymphocytes to uterine tissue: uteri from Ovx mice treated with hormone, versus placebo-treated Ovx or virgin
Excerpt: as §1, with “Uteri from gd 3 were flushed for blastocysts to confirm pregnancy.” left out, “described^12.” for “described^12. In all assays, some cell aliquots were incubated with function blocking mAb specific for human L-selectin (DREG-56, American Type Cell Collection [ATCC], Manassas, Va., 10 μg/ml) or human alpha4 integrin (HP2/1, Coulter Immunology, Hialeah, Fla., 10 μg/ml). To identify adherent human NK cells, PBL aliquots were pre-labeled with anti-CD56 mAb (NKG1, Coulter Immunology, diluted 1:100) followed by rabbit anti-mouse Ig-rhodamine isothiocynate (RITC) Ab as described previously (10;29). Control aliquots were treated with the secondary reagent alone.”

[4] = test system: human lymphocytes; assay: Effect of blood collection anti-coagulant on adhesion of human lymphocytes to LN from pregnant mice; format: cell-based; details: blood collected into the anti-coagulant
Method: Male and female subjects of legal age and in good health were recruited to donate up to 30 ml of blood, using venipuncture into evacuated, sterile blood collection tubes. All subjects were informed about the risks of participation in this study and signed approved informed consent forms. The blood was layered onto an equal volume of Histopaque 1.077 (Sigma) and centrifuged at 400×g for 30 min at RT according to manufacturers instructions. The cells at the interface were collected, washed thrice and counted.
The effects of anti-coagulants on adhesive properties of isolated PBL were assessed. Ten ml of blood was collected by venipuncture (40 ml collected per subject) into sterile evacuated tubes containing either Acid Citrate Dextrose (ACD), EDTA, Sodium Citrate, or heparin. Lymphocytes were isolated as described above and applied to sections of LN from pregnant mice. The sections were assessed for lymphocyte adhesion by microscopy.

[5] = test system: uterine artery and decidua; details: alymphoid mice, daily 100–1000 IU/6 days; cited from earlier work
[6] = test system: high endothelial venules (HEV) of Peyer's Patches (PP); assay: Adhesion under shear of TK-1 cells to Peyer's Patch HEV from hormone-treated ovariectomized mice; format: in vivo, mouse; details: tissue from Ovx mice treated with hormone, versus placebo or virgin controls
Excerpt: C57BI/6J (Jackson Laboratory, Bar Harbor, Me.) and Balb/c (Taconic, Germantown, N.Y.) mice, aged 7–8 wk were studied. Some females were used for timed matings with the morning of the copulation plug designated gd 0. Other females (n=34) were surgically ovariectomized under Avertin anaesthesia (24). Females were rested 6 days and then received daily subcutaneous injections of either hormone dissolved in sesame oil or sesame oil alone between 9.00–11.00 a.m. as indicated in FIG. 2.^81-84 Some of the Ovx hormone-treated mice also had 10 μl sterile sesame oil injected into a uterine horn to induce decidualization 48 h prior to euthanasia. […] The cell suspensions evaluated for adhesive interactions with endothelium were human peripheral blood lymphocytes (PBL) isolated from random (female and male) normal donor buffy coat leukocyte concentrates (American Red Cross, Rochester, N.Y.);^85,68 and TK-1 cells (an alpha integrin^high, L-selectin^low mouse T lymphoma cell line).^85 In selected experiments, human PBL were cultured 6 hr at 37° C. or 40° C. before being applied to tissue sections, as previously described^12. […] Following removal of non adherent cells, glutaraldehyde-fixed specimens were stained with 0.5% toluidine blue and adhesion was scored on 300–500 HEV/PLN or PP specimen or equivalent numbers of small vessels in pancreatic tissue. […]

C[C@]12CC[C@@H]3c4ccc(O)cc4CC[C@H]3[C@@H]1CC[C@@H]2O [E2, 17-beta estradiol]
L-selectin-dependent and α4 integrin-dependent lymphocyte adhesion to endothelium of secondary lymphoid tissues, compared to pregnancy [1]: fully mimicked the functional gains in adhesion promoted by pregnancy
L-selectin-dependent and α4 integrin-dependent lymphocyte adhesion to endothelium of secondary lymphoid tissues, compared to pregnancy ([1]; listed as estrogen): equivalent to pregnancy
adhesion of PBL or TK1 cells to pancreas [2]: no effect
adhesion of PBL or TK1 cells to pancreas ([2]; listed as estrogen): no increase
adhesion of CD56bright human lymphocytes to uterine tissue [3]: equivalent functional changes
percentage of CD56bright cells among lymphocytes adhering to uterine tissue (enrichment) ([3]; uterine tissue from mouse receiving hormone therapy, starting preparation 2–3% CD56bright): 70%

O=C([O-])CC(O)(CC(=O)[O-])C(=O)[O-].[Na+].[Na+].[Na+] [sodium citrate]
adhesion of isolated human lymphocytes to LN from pregnant mice [4]: did not interfere with adhesion

Tumor necrosis factor-alpha
uterine artery modification and decidua [5]: lacked these effects

CC(=O)[C@H]1CC[C@H]2[C@@H]3CCC4=CC(=O)CC[C@]4(C)[C@H]3CC[C@]12C [P4, progesterone]
L-selectin-dependent and α4 integrin-dependent lymphocyte adhesion to endothelium of secondary lymphoid tissues, compared to pregnancy [1]: fully mimicked the functional gains in adhesion promoted by pregnancy
L-selectin-dependent and α4 integrin-dependent lymphocyte adhesion to endothelium of secondary lymphoid tissues, compared to pregnancy ([1]; listed as progesterone): equivalent to pregnancy
L-selectin-dependent adhesion of human PBL to PLN HEV ([1]; tissue from Ovx mice treated with hormone, versus placebo (oil) or virgin controls): enhanced L-selectin-dependent binding
alpha4 integrin/MAdCAM-1-dependent TK-1 cell adhesion to PP HEV [6]: enhanced, progesterone-dependent, and α4 integrin-dependent, binding
adhesion of CD56bright human lymphocytes to uterine tissue [3]: equivalent functional changes
adhesion of CD56bright human lymphocytes to uterine tissue ([3]; listed as progesterone): promoted

B1: recombinant mulFN-γ: recombinant murine interferon-gamma (protein, UniProt P01580 23-155, looked up)
Interferon gamma: HGTVIESLESLNNYFNSSGIDVEEKSLFLDIWRNWQKDGDMKILQSQIISFYLRLFEVLKDNQAISNNISVIESHLITTFFSNSKAKKDAFMSIAKFEVNNPQVQRQAFNELIRVVHQLLPESSLRKRKRSRC
uterine artery modification and decidua [5]: promoted full uterine artery modification and normalized deciduas
